Reference: US20130266636A1, “METHODS FOR BLOCKING CELL PROLIFERATION AND TREATING DISEASES AND CONDITIONS RESPONSIVE TO CELL GROWTH INHIBITION” (THE REGENTS OF THE UNIVERSITY OF CALIFORNIA, priority 2010, published 2013)

How the values were obtained:
[1] = biological target: T1, phospho-S338 CRAF (Homo sapiens, UniProt P04049); assay: Phospho-S338 CRAF staining in orthotopic brain tumor xenografts; type: in vivo, mice; details: systemic KG5 50 mg/Kg, 3 days
T1 construct: phospho-S338 CRAF in orthotopic brain tumor xenografts untreated or treated systemically with KG5; from tissue; host or cells: orthotopic U-87 glioblastoma xenografts in the brain of nude mice
T1 sequence (P04049 whole entry): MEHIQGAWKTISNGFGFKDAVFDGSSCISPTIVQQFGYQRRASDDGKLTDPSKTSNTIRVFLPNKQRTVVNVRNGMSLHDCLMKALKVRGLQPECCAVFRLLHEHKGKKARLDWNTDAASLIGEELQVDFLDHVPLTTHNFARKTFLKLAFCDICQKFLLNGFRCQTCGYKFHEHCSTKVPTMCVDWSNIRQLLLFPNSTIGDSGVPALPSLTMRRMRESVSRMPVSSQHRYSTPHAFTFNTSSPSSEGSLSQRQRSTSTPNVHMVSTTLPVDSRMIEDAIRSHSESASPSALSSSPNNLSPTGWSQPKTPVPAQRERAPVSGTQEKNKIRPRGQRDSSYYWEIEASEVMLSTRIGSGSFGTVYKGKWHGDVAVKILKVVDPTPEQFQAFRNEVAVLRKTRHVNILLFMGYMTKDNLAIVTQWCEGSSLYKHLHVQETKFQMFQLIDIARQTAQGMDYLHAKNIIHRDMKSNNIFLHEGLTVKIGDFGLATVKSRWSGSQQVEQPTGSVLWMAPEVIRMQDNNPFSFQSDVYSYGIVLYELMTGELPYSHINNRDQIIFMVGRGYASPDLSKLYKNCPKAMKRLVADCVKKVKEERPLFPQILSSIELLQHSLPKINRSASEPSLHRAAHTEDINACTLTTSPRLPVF
Procedure: FIG. 41. Phospho-5338 CRAF is highly expressed in tumors and can be blocked by an allosteric RAF inhibitor: FIG. 41(a) Immunohistochemical staining of phospho-S338 CRAF in normal human brain and human glioblastoma tissues. Scale bar, 100 μm. FIG. 41(b) Immunohistochemical staining of phospho-S338 CRAF in orthotopic brain tumor xenografts untreated or treated systemically with KG5 (50 mg/Kg) for 3 days. Scale bar, 50 p.m. FIG. 42. Phospho-5338 CRAF promotes mitosis: FIG. 42(a) Quantification of WT and CRAF−/− cells in the G1, S and G2/M phases of the cell cycle. Data are representative of three independent experiments. […] Cells in G2/M were quantified by flow cytometry. […] FIG. 42(d) Cells at pro-metaphase were quantified using confocal microscopy. […] FIG. 42(e) HCT-116 cells were transfected with control or CRAF siRNAs and cells in G2/M were quantified by flow cytometry. […] Lysates of these cells were analyzed for CRAF expression by immunoblotting (inset). […] Quantification of cells in G2/M was performed by flow cytometry. […]
Tumors were generated by injection of RFP-labeled U-87 human glioblastoma cells (10^5 tumorcells in 2 μl of sterile PBS) into the brain of 6-8 week old female nude mice. […] Brains were harvested at day 15 and fluorescence images recorded using the IVIS-200™ imaging system (Xenogen Corp., Hopkinton, Mass.). […]

[2] = system: PKC; details: cited from earlier work
[3] = biological target: PDGFRβ (Homo sapiens, UniProt P09619); details: in response to PDGF-BB; cited from earlier work
Chain of PDGFRβ (P09619 33-1106, species assumed): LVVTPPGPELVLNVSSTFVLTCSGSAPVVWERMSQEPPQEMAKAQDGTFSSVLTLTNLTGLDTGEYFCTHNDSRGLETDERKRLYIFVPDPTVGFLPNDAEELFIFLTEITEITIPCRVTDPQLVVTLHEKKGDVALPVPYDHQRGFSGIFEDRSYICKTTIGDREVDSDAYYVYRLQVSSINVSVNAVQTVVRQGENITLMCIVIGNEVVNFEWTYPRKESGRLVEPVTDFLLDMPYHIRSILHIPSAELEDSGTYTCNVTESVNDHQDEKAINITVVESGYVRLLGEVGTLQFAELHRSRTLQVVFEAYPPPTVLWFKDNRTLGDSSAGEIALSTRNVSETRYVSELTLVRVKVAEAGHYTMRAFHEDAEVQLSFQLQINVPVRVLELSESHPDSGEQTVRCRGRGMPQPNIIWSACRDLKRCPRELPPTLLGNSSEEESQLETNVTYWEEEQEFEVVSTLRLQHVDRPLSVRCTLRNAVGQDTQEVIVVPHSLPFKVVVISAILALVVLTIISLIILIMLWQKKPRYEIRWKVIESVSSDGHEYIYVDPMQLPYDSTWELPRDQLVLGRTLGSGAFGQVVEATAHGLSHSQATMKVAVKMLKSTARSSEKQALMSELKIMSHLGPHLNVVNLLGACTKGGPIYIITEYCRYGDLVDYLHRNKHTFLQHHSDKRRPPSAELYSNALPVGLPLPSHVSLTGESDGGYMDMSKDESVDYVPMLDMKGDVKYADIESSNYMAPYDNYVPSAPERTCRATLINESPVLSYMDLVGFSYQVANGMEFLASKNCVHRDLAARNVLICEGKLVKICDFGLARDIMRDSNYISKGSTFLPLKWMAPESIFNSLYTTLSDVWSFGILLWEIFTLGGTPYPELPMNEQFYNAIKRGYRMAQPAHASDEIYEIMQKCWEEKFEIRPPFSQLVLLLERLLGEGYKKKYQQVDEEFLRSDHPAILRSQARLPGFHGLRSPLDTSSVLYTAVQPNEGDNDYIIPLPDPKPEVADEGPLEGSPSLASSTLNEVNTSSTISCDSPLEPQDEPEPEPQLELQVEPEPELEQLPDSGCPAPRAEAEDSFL

[4] = system: Plk1; assay: Plk1 activity in tumor cells arrested in pro-metaphase; type: cell-based, human; details: compared to cells arrested with nocodazole or paclitaxel
Text: FIG. 46. CRAF regulates Plk1 activity and localization. FIG. 46(a) Plk1 kinase activity assay performed in WT and CRAF−/− MEFs. Error bars represent s.d. (n=3); * two tailed p value=0.029 using Mann Whitney U test. FIG. 46(b) Immunoblot analysis of XPA-1 cells asynchronous or arrested in mitosis by treatment with KG5, nocodazole or paclitaxel (referred to as Ncdzl and Ptxl respectively). pPlk1 refers to phospho-T210 Plk1 and pHH3 refers to phospho-Histone H3. Data are representative of three independent experiments. FIG. 46(c) Plk1 kinase activity assay performed in HCT-116 cells treated with nocodazole or nocodazole and KG5. Error bars represent s.d. ([…]); * two tailed p value=0.002 using Mann Whitney U test. FIG. 46(d) Immunoblot analysis of CenpF immunoprecipitates from HCT-116 cells untreated or treated with KG5. Data are representative of three independent experiments. FIG. 46(e) Confocal microscopy images of XPA-1 cell at prophase (upper panel), pro-metaphase control untreated (middle panel) or treated with KG5 (lower panel). Cells were stained for phospho-T210 Plk1 (in green), a tubulin (in red) and DNA (TOPRO-3™ in blue). […]
Plk1 enzymatic activity in cell lysates from WT, CRAF−/− MEFs, HCT-116 cells expressing WT or S338D CRAF and HCT-116 cells treated with the allosteric RAF inhibitor KG5 was determined using the Plk1 kinase kit from MBL and following the manufacturer's protocol.

[5] = system: HCT-116 cells; assay: G2/M arrest in HCT-116 cells expressing WT or S338D CRAF; type: cell-based, human; details: 1 μM KG5, 18 hours

SMILES: CSc1nc(N)cc(Oc2ccc(-c3nnc(Nc4cccc(C(F)(F)F)c4)[nH]3)cc2)n1 [KG5]
- phospho-S338 CRAF in orthotopic brain tumor tissues [1]: qualitative decrease in phospho-5338 RAF
- PKC [2]: no impact
- PDGFRβ autophosphorylation [3]: directly impacts PDGFRβ autophosphorylation
- Plk1 activity [4]: decreased Plk1 activity
- G2/M arrest in cells expressing phospho-mimetic S338D CRAF [5]: showed resistance to KG5
